Assay results published in patent publication US20230148214A1, “INDAZOLES AND AZAINDAZOLES AS LRRK2 INHIBITORS” (ESCAPE Bio, Inc., priority 2020, published 2023).

Legend:
LRRK2 WT = molecular target: T1, LRRK2 WT (Homo sapiens, UniProt Q5S007); test: LRRK2 Kinase Activity Assay (LanthaScreen TR-FRET), wild type; type: biochemical; settings: recombinant wild type LRRK2, 25 μM ATP, 400 nM LRRKtide, 60 min; class symbols
T1 construct: purchased Life Technologies PR8604B
Procedure, shortened: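 IC50 fitted to the compound-dependent loss of TR-FRET signal. Each kinase form, wild type or G2019S, phosphorylated the fluorescein-tagged ERM-derived LRRKtide in the presence of ATP and compound dilutions over 60 min at room temperature; quench contained 10 mM EDTA and 2 nM anti-pERM antibody (final).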

LRRK2 G2019S = molecular target: T2, LRRK2 G2019S (Homo sapiens, UniProt Q5S007, G2019S); test: LRRK2 Kinase Activity Assay (LanthaScreen TR-FRET), G2019S; type: biochemical; settings: recombinant G2019S-LRRK2, 25 μM ATP, 400 nM LRRKtide, 60 min; class symbols
T2 construct: purchased Life Technologies PV4881
Protocol: LRRK2 kinase activity was measured using a LanthaScreen™ Kinase Activity Assay from ThermoFisher Scientific. Recombinant wild type or G2019S-LRRK2 protein (Life Technologies, PR8604B or PV4881, respectively), was incubated with a fluorescein-labeled peptide substrate called LRRKtide that is based upon ezrin/radixin/moesin (ERM) (Life Technologies, PV4901) in the presence of ATP and serially diluted compound. […] Compound-dependent inhibition of the TR-FRET signal was used to generate a concentration-response curve for IC50 determination.
After 60 min incubation at room temperature, the reaction was stopped by addition of 10 μL of 2×stop solution containing a final concentration of 2 nM anti-pERM antibody and 10 mM EDTA.

T2 sequence (Q5S007 whole entry G2019S): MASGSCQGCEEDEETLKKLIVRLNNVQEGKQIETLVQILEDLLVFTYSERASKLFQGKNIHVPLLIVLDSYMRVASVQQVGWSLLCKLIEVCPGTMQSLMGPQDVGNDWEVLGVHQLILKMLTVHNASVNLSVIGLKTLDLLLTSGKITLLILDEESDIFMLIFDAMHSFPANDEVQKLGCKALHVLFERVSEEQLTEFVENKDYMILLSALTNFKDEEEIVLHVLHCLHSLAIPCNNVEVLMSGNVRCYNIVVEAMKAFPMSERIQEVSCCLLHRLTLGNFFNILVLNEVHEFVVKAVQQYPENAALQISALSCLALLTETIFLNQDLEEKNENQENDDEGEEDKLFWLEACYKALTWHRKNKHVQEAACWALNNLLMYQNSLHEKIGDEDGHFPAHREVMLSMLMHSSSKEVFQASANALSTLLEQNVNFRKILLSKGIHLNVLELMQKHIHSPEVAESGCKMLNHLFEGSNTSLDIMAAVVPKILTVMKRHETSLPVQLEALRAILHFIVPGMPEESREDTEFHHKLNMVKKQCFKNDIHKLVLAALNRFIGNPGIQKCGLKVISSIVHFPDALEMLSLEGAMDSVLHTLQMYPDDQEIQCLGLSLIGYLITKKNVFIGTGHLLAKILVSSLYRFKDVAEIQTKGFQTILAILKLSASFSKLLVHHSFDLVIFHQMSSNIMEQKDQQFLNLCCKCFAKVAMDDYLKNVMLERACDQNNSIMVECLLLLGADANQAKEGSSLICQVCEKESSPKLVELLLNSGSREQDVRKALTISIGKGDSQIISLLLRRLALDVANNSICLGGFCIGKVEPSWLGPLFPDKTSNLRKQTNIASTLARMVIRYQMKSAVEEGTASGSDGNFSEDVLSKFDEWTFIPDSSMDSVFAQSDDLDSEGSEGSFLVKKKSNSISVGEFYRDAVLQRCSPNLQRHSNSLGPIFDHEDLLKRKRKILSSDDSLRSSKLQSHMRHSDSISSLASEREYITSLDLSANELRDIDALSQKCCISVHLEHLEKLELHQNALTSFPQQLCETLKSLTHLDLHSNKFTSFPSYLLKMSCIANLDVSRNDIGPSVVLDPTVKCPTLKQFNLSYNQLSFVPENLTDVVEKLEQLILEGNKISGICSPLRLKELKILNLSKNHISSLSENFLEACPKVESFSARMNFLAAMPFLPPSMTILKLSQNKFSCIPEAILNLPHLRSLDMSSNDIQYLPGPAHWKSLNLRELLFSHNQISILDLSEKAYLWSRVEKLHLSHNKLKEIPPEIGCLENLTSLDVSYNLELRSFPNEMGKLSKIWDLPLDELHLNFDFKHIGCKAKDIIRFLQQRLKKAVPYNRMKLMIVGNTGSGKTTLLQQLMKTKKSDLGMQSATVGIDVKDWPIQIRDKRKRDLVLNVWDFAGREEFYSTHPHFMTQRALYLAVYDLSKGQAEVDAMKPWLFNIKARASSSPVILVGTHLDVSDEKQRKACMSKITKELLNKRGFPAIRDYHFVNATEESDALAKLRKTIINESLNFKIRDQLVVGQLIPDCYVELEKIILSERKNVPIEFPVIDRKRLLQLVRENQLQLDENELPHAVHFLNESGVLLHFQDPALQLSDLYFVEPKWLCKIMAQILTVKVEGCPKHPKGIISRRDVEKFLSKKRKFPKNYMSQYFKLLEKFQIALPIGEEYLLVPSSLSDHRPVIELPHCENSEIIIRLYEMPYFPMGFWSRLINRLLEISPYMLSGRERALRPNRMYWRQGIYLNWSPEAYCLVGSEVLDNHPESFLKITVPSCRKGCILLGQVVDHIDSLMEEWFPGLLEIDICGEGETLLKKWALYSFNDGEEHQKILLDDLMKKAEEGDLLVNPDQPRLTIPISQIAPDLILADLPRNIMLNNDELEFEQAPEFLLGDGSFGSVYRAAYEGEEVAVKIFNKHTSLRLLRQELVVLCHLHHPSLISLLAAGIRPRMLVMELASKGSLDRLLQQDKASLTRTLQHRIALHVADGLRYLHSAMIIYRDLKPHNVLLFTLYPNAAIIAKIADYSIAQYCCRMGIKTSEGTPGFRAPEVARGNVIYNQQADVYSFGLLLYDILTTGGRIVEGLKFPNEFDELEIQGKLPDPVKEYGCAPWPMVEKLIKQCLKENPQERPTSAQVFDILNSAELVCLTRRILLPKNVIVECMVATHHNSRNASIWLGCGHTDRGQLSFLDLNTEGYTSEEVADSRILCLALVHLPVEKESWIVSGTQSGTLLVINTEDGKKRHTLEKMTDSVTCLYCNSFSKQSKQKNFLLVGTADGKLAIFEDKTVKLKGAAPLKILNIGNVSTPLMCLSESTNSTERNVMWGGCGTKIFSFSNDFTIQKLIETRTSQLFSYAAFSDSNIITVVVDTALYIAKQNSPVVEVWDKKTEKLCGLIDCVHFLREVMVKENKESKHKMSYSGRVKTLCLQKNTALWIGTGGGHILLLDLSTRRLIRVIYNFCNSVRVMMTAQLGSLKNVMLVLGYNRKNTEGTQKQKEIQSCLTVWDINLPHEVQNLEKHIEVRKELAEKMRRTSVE
T1 sequence (Q5S007 whole entry): as the sequence (Q5S007 whole entry G2019S) above, with S2019G counted along it

| IC50 (LRRK2 WT) [µM] | IC50 (LRRK2 G2019S) [µM] | Compound |
| --- | --- | --- |
| < 0.1 | < 0.1 | N#Cc1ccc2c(c1)OCC[C@@H]2Nc1ccc2[nH]nc(I)c2c1 (single isomer, unassigned) [193, enantiomer 2, 4-((3-Iodo-1H-indazol-5-yl)amino)chromane-7-carbonitrile] |
| < 0.1 | < 0.1 | N#Cc1cnc2c(c1)OCC[C@@H]2Nc1ccc2[nH]nc(-c3cnco3)c2c1 (single isomer, unassigned) [194, enantiomer 1, 4-((3-(Oxazol-5-yl)-1H-indazol-5-yl)amino)-3,4-dihydro-2H-pyrano[3,2-b]pyridine-7-carbonitrile] |
| 0.1 to 1 | 0.1 to 1 | N#Cc1cnc2c(c1)OCC[C@@H]2Nc1ccc2[nH]nc(-c3cnco3)c2c1 (single isomer, unassigned) [194, enantiomer 2, 4-((3-(Oxazol-5-yl)-1H-indazol-5-yl)amino)-3,4-dihydro-2H-pyrano[3,2-b]pyridine-7-carbonitrile] |
| 0.1 to 1 | < 0.1 | Cc1n[nH]c2ccc(O[C@H]3CCc4cc(C#N)ccc43)cc12 (single isomer, unassigned) [Example 1, enantiomer 1, 1-((3-Methyl-1H-indazol-5-yl)oxy)-2,3-dihydro-1H-indene-5-carbonitrile] |
| 0.1 to 1 | < 0.1 | Cc1n[nH]c2ccc(O[C@H]3CCc4cc(C#N)ccc43)cc12 (single isomer, unassigned) [Example 1, enantiomer 2, 1-((3-Methyl-1H-indazol-5-yl)oxy)-2,3-dihydro-1H-indene-5-carbonitrile] |
| < 0.1 | < 0.1 | N#Cc1cnc2c(c1)CCC[C@@H]2Oc1ccc2[nH]nc(-c3cnoc3)c2c1 (single isomer, unassigned) [Example 2, enantiomer 1, 8-((3-(Isoxazol-4-yl)-1H-indazol-5-yl)oxy)-5,6,7,8-tetrahydroquinoline-3-carbonitrile] |
| < 0.1 | < 0.1 | N#Cc1ccc2c(c1)CCC2Oc1ccc2[nH]nc(-c3cnco3)c2c1 (single isomer, unassigned) [Example 3, enantiomer 1, 1-((3-(Oxazol-5-yl)-1H-indazol-5-yl)oxy)-2,3-dihydro-1H-indene-5-carbonitrile] |
| 0.1 to 1 | < 0.1 | N#Cc1ccc2c(c1)CC[C@@H]2Oc1ccc2[nH]nc(-c3cnn(C(F)F)c3)c2c1 (single isomer, unassigned) [Example 4, enantiomer 1, 1-((3-(1-(Difluoromethyl)-1H-pyrazol-4-yl)-1H-indazol-5-yl)oxy)-2,3-dihydro-1H-indene-5-carbonitrile] |
| < 0.1 | < 0.1 | N#Cc1ccc2c(c1)CC[C@@H]2Oc1ccc2[nH]nc(-c3cnoc3)c2c1 (single isomer, unassigned) [Example 5, enantiomer 1, 1-((3-(Isoxazol-4-yl)-1H-indazol-5-yl)oxy)-2,3-dihydro-1H-indene-5-carbonitrile] |
| < 0.1 | < 0.1 | N#Cc1ccc2c(c1)CCC[C@@H]2Nc1ccc2[nH]nc(-c3cnoc3)c2c1 (single isomer, unassigned) [Example 6, enantiomer 1, 5-((3-(Isoxazol-4-yl)-1H-indazol-5-yl)amino)-5,6,7,8-tetrahydronaphthalene-2-carbonitrile] |
| 0.1 to 1 | < 0.1 | N#Cc1ccc2c(c1)CCC[C@@H]2Nc1ccc2[nH]nc(-c3cnoc3)c2c1 (single isomer, unassigned) [Example 6, enantiomer 2, 5-((3-(Isoxazol-4-yl)-1H-indazol-5-yl)amino)-5,6,7,8-tetrahydronaphthalene-2-carbonitrile] |
| 1 to 10 | 0.1 to 1 | N#Cc1cnc2c(c1)CCC[C@@H]2Nc1ccc2[nH]nc(-c3cnoc3)c2c1 (single isomer, unassigned) [Example 7, enantiomer 1, 8-((3-(Isoxazol-4-yl)-1H-indazol-5-yl)amino)-5,6,7,8-tetrahydroquinoline-3-carbonitrile] |
| < 0.1 | < 0.1 | N#Cc1cnc2c(c1)CCC[C@@H]2Nc1ccc2[nH]nc(-c3cnoc3)c2c1 (single isomer, unassigned) [Example 7, enantiomer 2, 8-((3-(Isoxazol-4-yl)-1H-indazol-5-yl)amino)-5,6,7,8-tetrahydroquinoline-3-carbonitrile] |
| < 0.1 | < 0.1 | N#Cc1ccc2c(c1)CC[C@@H]2Nc1ccc2[nH]nc(-c3cnoc3)c2c1 (single isomer, unassigned) [Example 8, enantiomer 1, 1-((3-(Isoxazol-4-yl)-1H-indazol-5-yl)amino)-2,3-dihydro-1H-indene-5-carbonitrile] |
| < 0.1 | < 0.1 | N#Cc1ccc2c(c1)CC[C@@H]2Nc1ccc2[nH]nc(-c3cnco3)c2c1 (single isomer, unassigned) [Example 9, enantiomer 1, 1-((3-(Oxazol-5-yl)-1H-indazol-5-yl)amino)-2,3-dihydro-1H-indene-5-carbonitrile] |
| 0.1 to 1 | < 0.1 | N#Cc1ccc2c(c1)CC[C@@H]2Nc1ccc2[nH]nc(-c3ccoc3)c2c1 (single isomer, unassigned) [Example 11, enantiomer 1, 1-((3-(Furan-3-yl)-1H-indazol-5-yl)amino)-2,3-dihydro-1H-indene-5-carbonitrile] |
| < 0.1 | < 0.1 | N#Cc1ccc2c(c1)CC[C@@H]2Nc1ccc2[nH]nc(-c3cnn(C(F)F)c3)c2c1 (single isomer, unassigned) [Example 12, enantiomer 1, 1-((3-(1-(Difluoromethyl)-1H-pyrazol-4-yl)-1H-indazol-5-yl)amino)-2,3-dihydro-1H-indene-5-carbonitrile] |
| < 0.1 | < 0.1 | Cc1cc(C#N)cc2c1[C@@H](Oc1ccc3[nH]nc(-c4cnco4)c3c1)CC2 (single isomer, unassigned) [Example 14, enantiomer 1, 7-Methyl-1-((3-(oxazol-5-yl)-1H-indazol-5-yl)oxy)-2,3-dihydro-1H-indene-5-carbonitrile] |
| 0.1 to 1 | < 0.1 | N#Cc1ccc2c(c1)CCC[C@@H]2Nc1ccc2[nH]nc(I)c2c1 (single isomer, unassigned) [Example 15, enantiomer 1, 5-((3-Iodo-1H-indazol-5-yl)amino)-5,6,7,8-tetrahydronaphthalene-2-carbonitrile] |
| 1 to 10 | 0.1 to 1 | N#Cc1ccc2c(c1)CCC[C@@H]2Nc1ccc2[nH]nc(I)c2c1 (single isomer, unassigned) [Example 15, enantiomer 2, 5-((3-Iodo-1H-indazol-5-yl)amino)-5,6,7,8-tetrahydronaphthalene-2-carbonitrile] |
| < 0.1 | < 0.1 | N#Cc1cnc2c(c1)CCC[C@@H]2Oc1ccc2[nH]nc(-c3cnco3)c2c1 (single isomer, unassigned) [Example 16, enantiomer 1, 8-((3-(Oxazol-5-yl)-1H-indazol-5-yl)oxy)-5,6,7,8-tetrahydroquinoline-3-carbonitrile] |
| < 0.1 | < 0.1 | N#Cc1ccc2c(c1)CCC[C@@H]2Oc1ccc2[nH]nc(-c3cnoc3)c2c1 (single isomer, unassigned) [Example 17, enantiomer 1, 5-((3-(Isoxazol-4-yl)-1H-indazol-5-yl)oxy)-5,6,7,8-tetrahydronaphthalene-2-carbonitrile] |
